Assay results from patent US12275731B2, “Azaindole inhibitors of wild-type and mutant forms of LRRK2” (DANA-FARBER CANCER INSTITUTE, INC., priority 2018, dated 2025).

Key:
Assay in all cases: KinomeScan profiling
Assay type in all cases: binding
[1] = biological target: MST1R (Homo sapiens, UniProt Q04912); conditions: read-out: % control
Summary of the method: (§1)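 Selectivity was assessed by binding competition at 1 μM against 468 kinases. Values below 35% of control define an interaction.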

[2] = biological target: YANK2 (Homo sapiens, UniProt Q9NY57); conditions: YANK2, 1 μM; read-out: % control
Summary of the method: as §1

[3] = biological target: T1, MLCK (Homo sapiens, UniProt Q32MK0); conditions: read-out: % control
T1 sequence (Q32MK0 1-819): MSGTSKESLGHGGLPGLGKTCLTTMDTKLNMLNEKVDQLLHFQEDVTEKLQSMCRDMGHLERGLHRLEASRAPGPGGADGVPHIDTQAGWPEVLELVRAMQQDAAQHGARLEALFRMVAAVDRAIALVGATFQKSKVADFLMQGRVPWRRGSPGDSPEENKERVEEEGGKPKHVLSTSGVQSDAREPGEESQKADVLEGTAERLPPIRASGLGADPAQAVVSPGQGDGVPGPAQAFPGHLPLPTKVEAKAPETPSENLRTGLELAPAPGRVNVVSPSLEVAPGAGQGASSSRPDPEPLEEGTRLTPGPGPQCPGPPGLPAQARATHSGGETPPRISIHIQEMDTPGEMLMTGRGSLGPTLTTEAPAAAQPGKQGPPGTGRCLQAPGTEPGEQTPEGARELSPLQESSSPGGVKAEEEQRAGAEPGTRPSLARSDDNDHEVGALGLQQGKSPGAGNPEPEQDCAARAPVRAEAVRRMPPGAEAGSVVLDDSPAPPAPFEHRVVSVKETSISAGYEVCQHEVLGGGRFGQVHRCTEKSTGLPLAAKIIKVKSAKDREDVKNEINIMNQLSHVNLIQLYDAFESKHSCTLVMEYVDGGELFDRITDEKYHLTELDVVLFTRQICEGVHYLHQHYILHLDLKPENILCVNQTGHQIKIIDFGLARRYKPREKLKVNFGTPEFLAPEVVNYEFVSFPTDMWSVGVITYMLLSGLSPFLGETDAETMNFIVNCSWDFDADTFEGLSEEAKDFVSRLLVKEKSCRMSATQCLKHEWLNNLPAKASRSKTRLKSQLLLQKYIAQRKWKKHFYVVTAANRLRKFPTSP
Summary of the method: as §1

[4] = biological target: T2, PIK3C2G (Homo sapiens, UniProt O75747); conditions: read-out: % control
T2 construct: purchased KinomeScan® (panel service)
T2 sequence (O75747 1-1486): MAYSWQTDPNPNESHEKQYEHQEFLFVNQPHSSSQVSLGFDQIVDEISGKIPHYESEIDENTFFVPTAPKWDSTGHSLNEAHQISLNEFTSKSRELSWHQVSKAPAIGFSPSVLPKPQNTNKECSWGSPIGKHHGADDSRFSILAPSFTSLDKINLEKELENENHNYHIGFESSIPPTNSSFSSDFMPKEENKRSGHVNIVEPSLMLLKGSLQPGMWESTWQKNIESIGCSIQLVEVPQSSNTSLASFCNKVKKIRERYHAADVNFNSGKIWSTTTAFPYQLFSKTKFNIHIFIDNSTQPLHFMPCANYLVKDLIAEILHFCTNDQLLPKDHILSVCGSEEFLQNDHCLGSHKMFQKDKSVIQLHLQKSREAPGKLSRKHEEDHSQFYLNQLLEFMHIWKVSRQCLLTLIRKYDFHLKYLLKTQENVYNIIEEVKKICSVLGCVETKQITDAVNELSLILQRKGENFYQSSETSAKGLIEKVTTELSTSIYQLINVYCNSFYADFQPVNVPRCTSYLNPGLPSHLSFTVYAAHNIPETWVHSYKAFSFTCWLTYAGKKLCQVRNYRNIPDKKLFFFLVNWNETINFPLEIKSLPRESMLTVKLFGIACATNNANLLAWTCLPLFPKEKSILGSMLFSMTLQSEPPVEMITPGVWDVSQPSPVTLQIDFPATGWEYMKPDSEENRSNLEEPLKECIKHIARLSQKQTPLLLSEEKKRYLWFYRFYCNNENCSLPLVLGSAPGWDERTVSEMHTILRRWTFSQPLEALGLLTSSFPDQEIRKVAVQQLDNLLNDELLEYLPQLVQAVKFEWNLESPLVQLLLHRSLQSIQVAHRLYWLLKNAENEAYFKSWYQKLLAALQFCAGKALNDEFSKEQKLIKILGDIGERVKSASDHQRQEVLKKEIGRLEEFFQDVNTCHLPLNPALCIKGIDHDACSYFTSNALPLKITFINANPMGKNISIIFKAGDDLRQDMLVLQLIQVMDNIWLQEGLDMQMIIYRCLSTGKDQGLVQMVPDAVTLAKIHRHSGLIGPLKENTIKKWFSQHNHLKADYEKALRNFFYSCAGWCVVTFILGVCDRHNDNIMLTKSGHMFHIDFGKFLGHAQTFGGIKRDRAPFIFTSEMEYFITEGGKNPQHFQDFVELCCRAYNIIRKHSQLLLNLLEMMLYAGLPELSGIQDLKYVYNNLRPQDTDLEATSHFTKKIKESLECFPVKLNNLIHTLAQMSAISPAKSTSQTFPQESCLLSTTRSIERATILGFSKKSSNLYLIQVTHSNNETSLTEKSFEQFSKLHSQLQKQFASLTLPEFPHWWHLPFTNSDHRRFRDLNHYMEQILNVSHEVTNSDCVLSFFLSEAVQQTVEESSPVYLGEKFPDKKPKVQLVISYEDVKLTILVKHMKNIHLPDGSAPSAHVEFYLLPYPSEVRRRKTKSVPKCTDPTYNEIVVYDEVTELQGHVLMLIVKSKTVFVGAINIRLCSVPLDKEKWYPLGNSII
Summary of the method: as §1

[5] = biological target: T3, PIK3CA(E545A) (Homo sapiens, UniProt P42336, E545A); conditions: read-out: % control
T3 construct: purchased KinomeScan® (panel service)
Summary of the method: as §1

[6] = biological target: MAP4K4 (Homo sapiens, UniProt O95819); conditions: MAP4K4, 1 μM; read-out: % control
Summary of the method: as §1

[7] = biological target: MYLK (Homo sapiens, UniProt Q15746); conditions: read-out: % control
Summary of the method: as §1

[8] = biological target: PDGFRA (Homo sapiens, UniProt P16234); conditions: read-out: % control
Summary of the method: as §1

Sequence of MST1R (Q04912 25-1400): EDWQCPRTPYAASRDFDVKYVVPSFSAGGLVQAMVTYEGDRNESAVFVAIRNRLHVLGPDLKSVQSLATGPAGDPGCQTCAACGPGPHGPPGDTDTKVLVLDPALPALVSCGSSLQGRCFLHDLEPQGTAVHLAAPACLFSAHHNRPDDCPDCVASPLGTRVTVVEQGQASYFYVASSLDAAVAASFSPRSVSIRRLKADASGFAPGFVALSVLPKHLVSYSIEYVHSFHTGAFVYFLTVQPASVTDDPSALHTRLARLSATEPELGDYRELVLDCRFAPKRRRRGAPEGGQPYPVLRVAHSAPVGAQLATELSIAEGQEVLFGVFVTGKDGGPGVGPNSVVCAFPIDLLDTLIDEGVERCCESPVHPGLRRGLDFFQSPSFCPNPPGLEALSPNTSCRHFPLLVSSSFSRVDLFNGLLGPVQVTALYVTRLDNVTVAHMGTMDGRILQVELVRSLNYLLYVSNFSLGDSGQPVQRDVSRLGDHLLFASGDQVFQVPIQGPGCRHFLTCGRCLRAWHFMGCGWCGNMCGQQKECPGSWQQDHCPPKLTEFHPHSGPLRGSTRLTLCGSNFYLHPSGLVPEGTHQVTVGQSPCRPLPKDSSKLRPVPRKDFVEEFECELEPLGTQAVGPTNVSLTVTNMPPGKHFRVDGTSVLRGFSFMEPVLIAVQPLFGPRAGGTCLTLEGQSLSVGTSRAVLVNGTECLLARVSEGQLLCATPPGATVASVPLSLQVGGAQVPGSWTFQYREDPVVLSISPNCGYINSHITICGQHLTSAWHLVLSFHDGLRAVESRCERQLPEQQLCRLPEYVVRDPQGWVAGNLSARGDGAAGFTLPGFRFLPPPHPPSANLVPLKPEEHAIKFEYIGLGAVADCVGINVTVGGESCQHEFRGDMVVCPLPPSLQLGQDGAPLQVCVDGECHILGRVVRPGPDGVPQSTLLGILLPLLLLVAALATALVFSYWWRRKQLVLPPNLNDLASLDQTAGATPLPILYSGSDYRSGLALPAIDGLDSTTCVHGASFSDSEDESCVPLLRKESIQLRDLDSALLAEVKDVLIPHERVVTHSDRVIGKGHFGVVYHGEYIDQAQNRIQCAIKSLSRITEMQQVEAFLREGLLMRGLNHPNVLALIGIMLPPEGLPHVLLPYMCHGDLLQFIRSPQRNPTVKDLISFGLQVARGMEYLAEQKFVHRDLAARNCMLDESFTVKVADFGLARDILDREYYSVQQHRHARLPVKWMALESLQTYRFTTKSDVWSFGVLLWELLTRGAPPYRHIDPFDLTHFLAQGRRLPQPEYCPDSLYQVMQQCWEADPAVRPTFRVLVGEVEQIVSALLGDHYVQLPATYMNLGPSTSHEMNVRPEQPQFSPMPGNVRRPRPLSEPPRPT
Sequence of PDGFRA (P16234 24-1089): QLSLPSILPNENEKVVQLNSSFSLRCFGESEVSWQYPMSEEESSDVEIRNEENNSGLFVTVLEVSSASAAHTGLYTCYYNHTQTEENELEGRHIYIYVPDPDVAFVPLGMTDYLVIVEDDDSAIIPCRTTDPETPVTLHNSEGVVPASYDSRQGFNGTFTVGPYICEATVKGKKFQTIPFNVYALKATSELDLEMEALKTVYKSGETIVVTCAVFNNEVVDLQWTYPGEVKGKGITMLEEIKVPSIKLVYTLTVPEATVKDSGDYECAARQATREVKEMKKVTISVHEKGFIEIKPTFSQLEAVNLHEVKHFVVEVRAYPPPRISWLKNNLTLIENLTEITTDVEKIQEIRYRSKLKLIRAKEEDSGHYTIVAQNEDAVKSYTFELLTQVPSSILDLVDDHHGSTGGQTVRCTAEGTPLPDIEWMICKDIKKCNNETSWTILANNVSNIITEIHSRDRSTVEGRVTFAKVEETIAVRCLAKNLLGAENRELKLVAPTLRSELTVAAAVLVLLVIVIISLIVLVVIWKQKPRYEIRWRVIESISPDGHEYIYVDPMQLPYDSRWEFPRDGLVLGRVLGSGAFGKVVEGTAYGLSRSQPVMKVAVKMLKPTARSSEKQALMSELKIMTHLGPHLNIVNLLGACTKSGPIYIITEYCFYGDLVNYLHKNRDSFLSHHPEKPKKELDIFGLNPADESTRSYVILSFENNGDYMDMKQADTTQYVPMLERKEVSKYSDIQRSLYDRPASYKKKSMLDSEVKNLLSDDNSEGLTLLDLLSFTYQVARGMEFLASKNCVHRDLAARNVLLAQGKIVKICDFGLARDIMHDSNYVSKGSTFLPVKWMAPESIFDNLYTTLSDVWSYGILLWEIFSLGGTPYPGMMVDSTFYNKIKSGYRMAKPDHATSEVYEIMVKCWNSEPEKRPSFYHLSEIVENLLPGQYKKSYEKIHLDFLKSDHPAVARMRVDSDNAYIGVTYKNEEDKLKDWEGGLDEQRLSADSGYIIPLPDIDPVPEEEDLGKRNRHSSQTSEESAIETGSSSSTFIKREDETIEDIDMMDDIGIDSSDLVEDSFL
Sequence of MYLK (Q15746 whole entry): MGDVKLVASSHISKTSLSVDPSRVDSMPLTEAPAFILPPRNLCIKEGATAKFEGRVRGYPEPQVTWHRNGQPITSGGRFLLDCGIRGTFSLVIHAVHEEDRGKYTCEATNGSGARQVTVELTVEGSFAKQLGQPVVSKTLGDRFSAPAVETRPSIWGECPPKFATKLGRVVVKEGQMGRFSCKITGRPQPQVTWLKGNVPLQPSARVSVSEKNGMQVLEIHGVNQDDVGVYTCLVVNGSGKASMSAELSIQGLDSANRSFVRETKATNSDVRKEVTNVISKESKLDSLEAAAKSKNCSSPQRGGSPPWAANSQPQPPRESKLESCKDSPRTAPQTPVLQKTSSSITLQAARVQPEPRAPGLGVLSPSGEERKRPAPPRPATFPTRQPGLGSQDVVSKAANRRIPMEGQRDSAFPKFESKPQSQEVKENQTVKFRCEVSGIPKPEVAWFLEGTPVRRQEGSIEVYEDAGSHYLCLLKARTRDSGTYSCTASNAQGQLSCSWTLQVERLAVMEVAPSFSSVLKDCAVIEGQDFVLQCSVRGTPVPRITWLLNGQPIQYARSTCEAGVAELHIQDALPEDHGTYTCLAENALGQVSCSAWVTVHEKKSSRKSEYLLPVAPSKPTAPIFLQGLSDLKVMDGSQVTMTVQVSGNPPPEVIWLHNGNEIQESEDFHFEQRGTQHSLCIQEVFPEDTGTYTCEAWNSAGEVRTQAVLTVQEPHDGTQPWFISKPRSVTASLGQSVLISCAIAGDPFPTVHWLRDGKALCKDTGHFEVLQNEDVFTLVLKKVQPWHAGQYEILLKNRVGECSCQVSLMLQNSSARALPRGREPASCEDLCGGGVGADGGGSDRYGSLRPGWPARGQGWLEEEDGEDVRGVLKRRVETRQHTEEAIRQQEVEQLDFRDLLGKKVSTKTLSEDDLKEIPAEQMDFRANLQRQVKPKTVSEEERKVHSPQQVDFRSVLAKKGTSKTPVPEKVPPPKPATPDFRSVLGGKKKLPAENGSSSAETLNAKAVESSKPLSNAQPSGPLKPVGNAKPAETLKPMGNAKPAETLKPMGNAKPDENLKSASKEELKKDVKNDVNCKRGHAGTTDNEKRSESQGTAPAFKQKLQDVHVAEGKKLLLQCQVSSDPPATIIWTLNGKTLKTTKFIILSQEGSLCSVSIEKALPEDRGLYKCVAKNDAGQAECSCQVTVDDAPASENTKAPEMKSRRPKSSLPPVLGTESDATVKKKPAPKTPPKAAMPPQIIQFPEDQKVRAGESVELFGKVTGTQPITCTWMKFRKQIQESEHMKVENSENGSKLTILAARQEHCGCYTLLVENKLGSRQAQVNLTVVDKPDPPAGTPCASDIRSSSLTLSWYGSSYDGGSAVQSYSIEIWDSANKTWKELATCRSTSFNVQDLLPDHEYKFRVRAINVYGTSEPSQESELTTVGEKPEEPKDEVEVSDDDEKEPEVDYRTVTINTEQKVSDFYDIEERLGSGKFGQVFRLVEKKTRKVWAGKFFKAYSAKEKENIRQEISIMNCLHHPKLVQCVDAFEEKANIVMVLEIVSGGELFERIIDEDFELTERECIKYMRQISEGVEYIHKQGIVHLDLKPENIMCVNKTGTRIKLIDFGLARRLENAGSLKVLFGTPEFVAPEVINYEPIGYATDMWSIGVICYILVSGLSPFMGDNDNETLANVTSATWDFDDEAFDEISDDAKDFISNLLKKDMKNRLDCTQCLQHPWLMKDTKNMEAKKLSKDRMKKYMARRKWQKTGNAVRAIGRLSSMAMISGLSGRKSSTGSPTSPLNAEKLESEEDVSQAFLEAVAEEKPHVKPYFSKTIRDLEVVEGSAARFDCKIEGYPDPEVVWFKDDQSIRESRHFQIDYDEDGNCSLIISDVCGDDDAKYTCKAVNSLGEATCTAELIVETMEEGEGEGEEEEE
Sequence of YANK2 (Q9NY57 whole entry): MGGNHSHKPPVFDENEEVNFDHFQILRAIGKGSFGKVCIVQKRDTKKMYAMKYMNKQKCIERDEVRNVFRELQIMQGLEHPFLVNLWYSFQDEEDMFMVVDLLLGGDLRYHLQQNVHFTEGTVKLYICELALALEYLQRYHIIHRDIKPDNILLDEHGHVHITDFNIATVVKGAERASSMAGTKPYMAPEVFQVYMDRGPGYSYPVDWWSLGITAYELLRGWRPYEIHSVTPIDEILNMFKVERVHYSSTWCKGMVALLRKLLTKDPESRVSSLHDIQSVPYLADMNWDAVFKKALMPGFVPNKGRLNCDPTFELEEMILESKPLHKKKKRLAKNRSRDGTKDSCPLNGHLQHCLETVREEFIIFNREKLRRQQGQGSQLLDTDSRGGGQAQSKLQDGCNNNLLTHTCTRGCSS

SMILES | remaining binding at 1 µM [1] [%] | remaining binding at 1 µM [2] [%] | remaining binding at 1 µM [3] [%] | remaining binding at 1 µM [4] [%] | remaining binding at 1 µM [5] [%] | remaining binding at 1 µM [6] [%] | remaining binding at 1 µM [7] [%] | remaining binding at 1 µM [8] [%]
CNc1c(-c2cnn([C@H]3CCN(C(C)=O)C[C@@H]3F)c2)cnc2[nH]cc(Cl)c12 [Compound 77, 1-((3S,4S)-4-(4-(3-chloro-4-(methylamino)-1H-pyrrolo[2,3-b]pyridin-5-yl)-1H-pyrazol-1-yl)-3-fluoropiperidin-1-yl)ethan-1-one] | 100 | 100 | 13 | 100 | 80 | 58 | 72 | 11
O=C(c1ccc(-c2cnc3[nH]cc(Cl)c3c2NC2CCCC2)cc1)N1CCC(N2CCOCC2)CC1 [Compound 101, (4-(3-chloro-4-(cyclopentylamino)-1H-pyrrolo[2,3-b]pyridin-5-yl)phenyl)(4-morpholinopiperidin-1-yl)methanone] | 77 | 100 | 100 | 92 | 98 | 78 | 83 | 92
CNc1c(-c2ccc(C(=O)N3CCC(N4CCOCC4)CC3)cc2)cnc2[nH]cc(Cl)c12 [Compound 96, (4-(3-chloro-4-(methylamino)-1H-pyrrolo[2,3-b]pyridin-5-yl)phenyl)(4-morpholinopiperidin-1-yl)methanone] | 88 | 100 | 5 | 94 | 62 | 19 | 85 | 45
